Measurements published in patent US9464045B2, “Process for the preparation of methionine” (EVONIK DEGUSSA GmbH, priority 2012, dated 2016).

Assay: Recrystallization of methionine in the presence of additives (procedure of Example 1): amount of foam and bulk density
Type: physicochemical
Conditions: bulk density of dried methionine; additive concentration 400 ppm
Method: 60 g of methionine, 305 g of water and 35 g of crude methionine filtrate were introduced into a flask and circulated via a heat exchanger by pumping at a temperature of 40° C. As a result of the potassium carbonate present in the crude methionine filtrate, the potassium ion concentration was ca. 7 g/kg. A solution, heated to 90° C., of 150 g of methionine in 990.5 ml of water and 109.5 g of crude methionine filtrate was added to this suspension at a rate of 18 ml/min, during which the temperature of the initial charge of suspension was kept at 40° C. After adding 650 ml of the hot solution, 500 ml of suspension were removed and then a further 500 ml of the hot solution were metered in at a rate of 18 ml/min. The resulting suspension was discharged, the amount of foam was determined, and the methionine was filtered off and washed with 300 ml of acetone. After drying the methionine, the bulk density was determined.
The recrystallization experiments were carried out in the presence of the following additives, the stated concentration being established by adding the additive to both starting solutions/suspensions. The concentration data give the total active ingredient content of the additive without water based on the total mass of the solution or suspension. Additive 1 was an aqueous mixture of antifoam and crystallization additive according to EP […] […]

Bulk density: 616 g/L
Substance: polyethoxylated (20 EO) sorbitan tristearate [Additive 24]
